Measured values: ChEMBL document CHEMBL6103603, “Novel Imidazo[4,5-c]pyridine Compounds as TLR7 Agonists for Treating Cancer” (ACS Med Chem Lett, 2025)

Target: T1, Toll-like receptor 7 (Homo sapiens, UniProt Q9NYK1)
T1 sequence (Q9NYK1 whole entry): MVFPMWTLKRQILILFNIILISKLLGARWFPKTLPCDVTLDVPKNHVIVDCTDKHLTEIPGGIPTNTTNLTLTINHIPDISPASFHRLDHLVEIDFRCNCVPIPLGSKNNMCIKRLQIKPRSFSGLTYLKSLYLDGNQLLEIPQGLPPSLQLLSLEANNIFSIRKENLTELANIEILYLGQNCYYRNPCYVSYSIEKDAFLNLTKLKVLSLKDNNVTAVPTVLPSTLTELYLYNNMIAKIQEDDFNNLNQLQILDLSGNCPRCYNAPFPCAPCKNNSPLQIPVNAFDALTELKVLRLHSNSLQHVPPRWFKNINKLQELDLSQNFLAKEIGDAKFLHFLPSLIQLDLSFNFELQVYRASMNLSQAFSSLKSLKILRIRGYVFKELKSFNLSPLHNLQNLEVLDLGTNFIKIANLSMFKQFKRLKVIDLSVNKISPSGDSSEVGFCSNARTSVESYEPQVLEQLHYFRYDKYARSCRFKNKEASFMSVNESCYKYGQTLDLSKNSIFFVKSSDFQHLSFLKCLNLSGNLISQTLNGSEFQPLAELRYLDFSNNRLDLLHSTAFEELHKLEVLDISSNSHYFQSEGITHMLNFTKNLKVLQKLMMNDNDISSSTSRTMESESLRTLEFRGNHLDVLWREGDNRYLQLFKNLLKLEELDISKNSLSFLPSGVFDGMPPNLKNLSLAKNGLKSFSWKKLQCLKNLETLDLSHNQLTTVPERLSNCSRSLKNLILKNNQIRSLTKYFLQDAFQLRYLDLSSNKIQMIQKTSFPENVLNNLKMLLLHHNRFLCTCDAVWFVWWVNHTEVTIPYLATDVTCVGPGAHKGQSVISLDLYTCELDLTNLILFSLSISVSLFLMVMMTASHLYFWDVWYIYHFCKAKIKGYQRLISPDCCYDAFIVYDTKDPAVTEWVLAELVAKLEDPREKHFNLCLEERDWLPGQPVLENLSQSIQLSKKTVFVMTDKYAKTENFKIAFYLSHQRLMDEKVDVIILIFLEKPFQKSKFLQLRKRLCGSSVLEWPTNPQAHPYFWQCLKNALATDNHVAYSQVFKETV
Test: Agonist activity at TLR7 in HEK-Blue hTLR7 cells expressing NF-kappaB/AP-1 inducible SEAP reporter gene using Quanti-blue as substrate preincubated for 20 hrs followed by substrate addition and measured after 1 hr by spectrophotometric analysis
Assay type: cell-based

CCOCc1nc2c(N)nc(C)c(Sc3ccc(CN(C)C)c(O)c3)c2[nH]1
EC50: 10 nM
